This note sets out measurements from article PMC9847679, “The anti-breast cancer stem cell properties of gold(I)-non-steroidal anti-inflammatory drug complexes” (Chemical Science, 2022).

The nature of data set [1]: Tissue biodistribution of gold. To be noted: 4T1-bearing mice after 16 days treatment, 10 mg kg−1 IP. In kind it is in vivo, BALB/c mice. The protocol: tumour-size and body-weight measurements were performed three days a week, and the mice were euthanised after 16 days (n = 5 for 1 and n = 5 for vehicle control).
Tissue biodistribution of 1. Following the treatment o f mice with 1 for 16 days, each tissue (heart, lung, liver, spleen, kidney, and tumo ur) was excised from euthanised mice (n = 3).
The tissues were boiled for 5 h at 60 °C with 70% nitric acid (0.5 mL) , and then boiled again at 60 °C for 10 min with 35% hydrogen peroxide (0.5 mL). The solutions turned yellow, and were diluted as needed to measure the gold content using a Graphite Furnace Atomic Absorption Spectrometer. Before measuring all samples, th e standard solution curves were […]
Hematoxylin and eosin staining. The mice used in the in vivo comparative experiment of 1 and the vehicle control were sacrificed at day 16 post tumo ur cells (4T1) injection. The tissues (liver, kidney, and tumour) were fixed in freshly prepared paraformaldehyde (4% in PBS) for 24 h and processed for paraffin sectioning. Tissue sections of 5 µm were stained with hematoxylin and eosin and used for histological examination. A total of 3 sections per tissue (spanning the full depth of the tissue) were examined and photographed using a Nikon

For another data set, the system named is HMLER-shEcad cells. Put plainly: Intracellular ROS assay (DCFH-DA, flow cytometry). In kind it is cell-based, human. To be noted: 0.4 μM. The protocol:
media. The final concentration of DMSO in each well was ≤1 %. After 72 h, 20 μl of MTT (4 mg mL-1 in PBS) was added to each well and the plates incubated for an additional 4 h at 37 °C. The media/MTT mixture was eliminated and DMSO (100 μl per well) was added to dissolve the formazan precipitates. The optical density was measured at 550 nm using a 96-well multiscanner autoreader. Absorbance values were normalised to (DMSO-containing) control wells and plotted as concentration of test compound versus % cell viability. IC50 values were interpolated from the resulting dose dependent curves. The reported IC50 values are the average of three independent experiments (n = 18).
Tumorsphere Formation and Viability Assay. […] Mammospheres treated with 1-3, 5-fluorouracil, capecitabine, cisplatin, carboplatin, and salinomycin (at their respective IC20 values, 5 days) were counted and imaged using an inverted microscope. The viability of the mammospheres was determined by addition of a resazurin-based reagent, TOX8 (Sigma). After incubation for 16 h, the fluorescence of the solutions was read at 590 nm (λex = 560 nm). […] Fluorescence values were normalised to DMSO-containing controls and plotted as concentration of test compound versus % mammospheres viability. […]
Cellular Uptake. […] The number of cells was counted at this stage, using a haemocytometer. […] Gold levels are expressed as mass of Au (ng) per million cells. […]

Turning to `COc1ccc2c(c1)c(CC(=O)[O][Au][PH](c1ccccc1)(c1ccccc1)c1ccccc1)c(C)n2C(=O)c1ccc(Cl)cc1` [complex 1], in data set [1], the “gold content in the kidney” value was 15 μg g^−1 of tissue. In addition, in data set [1], the “gold content in tumour tissue” value was 3 μg g^−1 of tissue. In addition, the “increase in intracellular ROS levels” value is 104% in the data set with HMLER-shEcad cells (6 h exposure (peak)) and “statistically insignificant increases in ROS levels” with HMLER-shEcad cells (prolonged (16–24 h) exposure).
